# Source: US20250059182A1, “SOS1 INHIBITORS” (Mirati Therapeutics, Inc., priority 2021, published 2025)
# Where a name gives a salt, the structure may show the parent alone. Read-outs that look alike come from different tables or passages of the source.
# Key:
# [1] = target: T1, recombinant human SOS1 polypeptide (amino acids 560-1049) (Homo sapiens, UniProt Q07889); assay: HTRF displacement assay: inhibition of labeled tracer binding to SOS1; conditions: Table A1, Morrison equation for competitive binding
# T1 construct: corresponding to amino acids 560-1049, expressed in E. Coli; made in house; host or cells: E. coli
# T1 sequence (Q07889 560-1049): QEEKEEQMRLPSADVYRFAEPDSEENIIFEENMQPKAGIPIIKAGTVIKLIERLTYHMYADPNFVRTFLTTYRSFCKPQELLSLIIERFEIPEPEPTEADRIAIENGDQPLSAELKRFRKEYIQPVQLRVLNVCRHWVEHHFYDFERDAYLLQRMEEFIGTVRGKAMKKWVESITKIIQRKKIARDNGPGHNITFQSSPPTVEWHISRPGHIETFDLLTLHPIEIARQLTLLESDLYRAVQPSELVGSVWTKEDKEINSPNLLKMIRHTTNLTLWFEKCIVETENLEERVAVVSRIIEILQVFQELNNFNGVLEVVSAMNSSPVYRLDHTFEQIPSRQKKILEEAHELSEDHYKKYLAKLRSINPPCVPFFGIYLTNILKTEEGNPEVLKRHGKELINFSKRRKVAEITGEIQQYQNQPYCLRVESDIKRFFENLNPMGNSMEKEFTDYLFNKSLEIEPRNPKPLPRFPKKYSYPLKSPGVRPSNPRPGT
# Description: The ability of a compound of Formula (I) to bind to SOS1 was measured using a HTRF displacement assay. […] After a 1-hour incubation at room temperature, the HTRF signal was measured using Clairostar plate reader (BMG Labtech) according to the manufacturer's instructions. Excitation filter EX-TR was used, and emission 1 was detected at 650-610 nm and emission 2 detected at 620-610 nm. The HTRF ratio was calculated using the formula: [emission 1/emission 2]*10000.
# Background signals were calculated from well with a 10 μM inhibitor, known to inhibit 100% at that concentration. The background subtracted signals were converted to % binding relative to DMSO controls. Data were analyzed using XLFIT software (IDBS) using a Morrison equation for competitive binding and Ki's were generated compound of Formula (I).
# pERK in MKN1 cells = assay: pERK inhibition, In-Cell Western (LI-COR Odyssey), MKN1 cells; type: cell-based; conditions: Homo sapiens
# Outline: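 IC50 was fitted from % pERK inhibition, calculated as the GAPDH-normalised pERK signal of each well divided by the vehicle mean. Signal was imaged at 700 and 800 nm after fixation, methanol permeabilisation and dual antibody staining. Before fixation, MKN1 cells had received compound for about 0.5–1 h at 37 °C, top concentration 10 µM, nine 3-fold dilutions.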
# [2] = MKN-1, Table B1, MKN1 or H358 cells (table does not say which), 0.5-1 hour incubation, read-out: IC50 (nM), pERK inhibition
# [3] = MKN-1, read-out: IC50 (nM), pERK inhibition
SMILES,Ki [1],IC50 (pERK in MKN1 cells; [2]),IC50 (pERK in MKN1 cells; [3])
"Cc1nnc(N[C@H](C)c2cccc(C(F)F)c2F)c2cc(N3CCN(CCCF)CC3)ncc12 [Example P-227, (R)-N-(1-(3-(difluoromethyl)-2-fluorophenyl)ethyl)-7-(4-(3-fluoropropyl)piperazin-1-yl)-4-methylpyrido[3,4-d]pyridazin-1-amine]",0.396 nM,223 nM,–
"Cc1c(C#N)cccc1[C@@H](C)Nc1nnc(C)c2cnc(N3CCN(CCCF)CC3)cc12 [Example P-229, (R)-3-(1-((7-(4-(3-fluoropropyl)piperazin-1-yl)-4-methylpyrido[3,4-d]pyridazin-1-yl)amino)ethyl)-2-methylbenzonitrile]",0.671 nM,59.3 nM,–
"Cc1c(C#N)cccc1[C@@H](C)Nc1nnc(C)c2cc(F)c(N3CCC34COC4)cc12 [Example P-230, (R)-3-(1-((6-fluoro-4-methyl-7-(6-oxa-1-azaspiro[3.3]heptan-1-yl)phthalazin-1-yl)amino)ethyl)-2-methylbenzonitrile]",2.51 nM,26 nM,–
"Cc1c(C#N)cccc1[C@@H](C)Nc1nnc(C)c2cnc(N3CCC34COC4)cc12 [Example P-231, (R)-2-methyl-3-(1-((4-methyl-7-(6-oxa-1-azaspiro[3.3]heptan-1-yl)pyrido[3,4-d]pyridazin-1-yl)amino)ethyl)benzonitrile formic acid salt]",3.34 nM,–,4290 nM
"Cc1nnc(N[C@H](C)c2cccc(C(F)F)c2F)c2cc(N3CCC34COC4)c(F)cc12 [Example P-232, (R)-N-(1-(3-(difluoromethyl)-2-fluorophenyl)ethyl)-6-fluoro-4-methyl-7-(6-oxa-1-azaspiro[3.3]heptan-1-yl)phthalazin-1-amine]",1.18 nM,7130 nM,–
"Cc1nnc(N[C@H](C)c2cccc(C(F)F)c2F)c2cc(N3CCC34COC4)ncc12 [Example P-233, (R)-N-(1-(3-(difluoromethyl)-2-fluorophenyl)ethyl)-4-methyl-7-(6-oxa-1-azaspiro[3.3]heptan-1-yl)pyrido[3,4-d]pyridazin-1-amine]",2.75 nM,18.8 nM,–
"Cc1nnc(N[C@H](C)c2cccc(C(F)F)c2F)c2cc(N3CCC34CN(C)C4)c(F)cc12 [Example P-234, (R)-N-(1-(3-(difluoromethyl)-2-fluorophenyl)ethyl)-6-fluoro-4-methyl-7-(6-methyl-1,6-diazaspiro[3.3]heptan-1-yl)phthalazin-1-amine]",0.416 nM,50.2 nM,–
"Cc1c(C#N)cccc1[C@@H](C)Nc1nnc(C)c2ccc(N3CCC34CN(C)C4)cc12 [Example P-235, (R)-2-methyl-3-(1-((4-methyl-7-(6-methyl-1,6-diazaspiro[3.3]heptan-1-yl)phthalazin-1-yl)amino)ethyl)benzonitrile formic acid salt]",0.618 nM,–,95.8 nM
"Cc1nnc(N[C@H](C)c2cccc(C(F)F)c2F)c2cc(N3CCC34CN(C)C4)ccc12 [Example P-236, (R)-N-(1-(3-(difluoromethyl)-2-fluorophenyl)ethyl)-4-methyl-7-(6-methyl-1,6-diazaspiro[3.3]heptan-1-yl)phthalazin-1-amine]",0.596 nM,42.1 nM,–
"Cc1nnc(N[C@H](C)c2cccc(C(F)F)c2F)c2cc(N3CCC34CNC4)ncc12 [Example P-237, (R)-N-(1-(3-(difluoromethyl)-2-fluorophenyl)ethyl)-4-methyl-7-(1,6-diazaspiro[3.3]heptan-1-yl)pyrido[3,4-d]pyridazin-1-amine]",0.515 nM,182 nM,–
"Cc1nnc(N[C@H](C)c2cccc(C(F)F)c2F)c2cc(N3CCC34CN(C)C4)ncc12 [Example P-238, (R)-N-(1-(3-(difluoromethyl)-2-fluorophenyl)ethyl)-4-methyl-7-(6-methyl-1,6-diazaspiro[3.3]heptan-1-yl)pyrido[3,4-d]pyridazin-1-amine]",0.4 nM,17.7 nM,–
"Cc1nnc(N[C@H](C)c2cccc(C(F)F)c2F)c2cc(-c3ccc(=O)n(C)c3)ncc12 [Example P-239, (R)-5-(1-((1-(3-(difluoromethyl)-2-fluorophenyl)ethyl)amino)-4-methylpyrido[3,4-d]pyridazin-7-yl)-1-methylpyridin-2(1H)-one]",15.1 nM,606 nM,–
